The structures appear in SMILES notation. Converted amounts (≈) assume the structure as drawn. Read-outs that look alike come from different tables or passages of the source.

Test [1] relates to platelet aggregation. Put plainly: In vitro inhibition of ADP (1 μM)-induced platelet aggregation (turbidimetric method of Born, platelet-rich plasma). It is filed as cell-based, guinea-pigs of Hartley strain. The following applies: guinea-pig PRP, preincubated 37° C. for 10 minutes; for IC50: Cavia porcellus, Platelet. The procedure: (§1) Platelet aggregation study was carried out by a tarbidimetric method of Born (G. V. R. Born; Nature, 194, 927, 1962) using an aggregometer. Citrated blood obtained from guinea-pigs of Hartley strain was centrifuged at 120 g for 10 minutes and the supernatant, Platelet-rich plasma (PRP), was separated. In in vitro experiments, PRP was preincubated with test compounds at 37° C. for 10 minutes and then aggregation was induced by adding ADP (1 μM). Extent of aggregation was estimated with maximum changes of light transmittance within 5 minutes after adding ADP. Inhibitory potencies of compounds were expressed with the concentration showing 50% inhibition of platelet aggregation (IC50). In ex vivo experiments, compounds were orally given to guinea-pigs. Blood was taken 5 hours after the administration of compounds, and platelet aggregation study was performed as described in in vitro experiments. Potencies of compnds was expressed with minimum dose showing significant inhibition (MED).

The test system of test [2] is depression in amplitude of ST-segment on ECG (vasopressin). Put plainly: Antianginal effect: vasopressin-induced depression in amplitude of ST-segment on ECG. It is filed as in vivo, male rats of Donryu strain. The conditions noted are these: Rattus norvegicus, anesthetized rats. The procedure: Antianginal effect of compounds was evaluated in male rats of Donryu strain according to Hatano et al. (N. Hatano et al.; Pharmacometrics, 19, 311, 1980) Vasopressin (0.2 IU/kg) was injected into femoral vein of anesthetized rats, and the depression in amplitude of ST-segment on ECG was measured at 30 second-intervals for 5 minutes after the vasopressin injection. Test compounds were intravenously injected 2 minutes before or orally given 30 minutes before the vasopressin injection. Data were analysed with two dimension analysis between the control and treated groups, and potencies of the compounds were expressed by MED.

Test [3] concerns platelet aggregation. Briefly: Ex vivo inhibition of ADP-induced platelet aggregation 5 hours after oral administration. The following applies: Cavia porcellus, blood taken 5 hours after administration, guinea-pigs, read-out: Ex vivo MED (minimum dose showing significant inhibition of platelet aggregation). It is filed as in vivo. The procedure: as §1
In test [4] the test system is gastric ulcer (HCl-ethanol induced). Put plainly: Inhibitory effect on gastric ulcer induced by HCl-ethanol (lesion index). It is filed as in vivo, rats (male, Wister strain). The following applies: Rattus norvegicus; oral, 30 minutes before 0.4N HCl-50% ethanol (1 ml); over night-fasted rats; read-out: ED50 (dose required for 50% inhibition of lesion index). The procedure: Gastric ulcer was induced by an oral administration of 0.4N HCl-50% ethanol (1 ml) to over night-fasted rats (male, Wister strain). One hour after HCl-ethanol administration, rats were sacrificed and their stomachs were isolated. Isolated stomachs were inflated with saline and fixed with 5% formalin. After fixation, the stomach was cut open along greater curvature and maximum length of each lesion was measured. The sum of lesion length was defined as the lesion index. Compounds were given orally 30 minutes before administration of HCl-ethanol. Potencies of compounds were expressed with ED50, the dose required for 50% inhibition of lesion index.

The mark [5] stands for this setting: iv, I.V., 2 minutes before vasopressin 0.2 IU/kg, read-out: I.V. MED (antianginal effect).
Where [6] appears, read: po, P.O., 30 minutes before vasopressin 0.2 IU/kg, read-out: P.O. MED (antianginal effect).

Turning to `CCCCCC(O)C=CC1C(O)CC(=O)C1CC(F)CCCCC(=O)O` (single isomer, unassigned; ent-6) [APG - 23, 8-ent-6-fluoro-PGE1], in test [1], the “In Vitro IC50 (platelet aggregation)” value came out at 0.0145 µg/mL.

Broadly, the IC50 is the concentration at which inhibition is half-maximal. Low values mean higher potency, high ones lower potency. `CCCC[C@H](C)C[C@H](O)/C=C/[C@H]1[C@H](O)CC(=O)[C@H]1CC(F)CCCCC(=O)O` (single isomer, unassigned; ent-17) [APG - 25] displayed an IC50 in test [1] of 0.0127 µg/mL (≈ 0.0317 µM). Further, the minimal effective dose stood at 1 µg/kg in test [2] (setting [5]), 0.1 µg/kg in test [2] (setting [6]) and 3000 µg/kg in test [3].

On to `CCCCC[C@H](O)/C=C/[C@H]1[C@H](O)CC(=O)[C@@H]1/C=C(/F)CCCCC(=O)O` [APG - 2, (6E)-Δ^6-6-fluoro-PGE1], for which, in test [1], the IC50 is 0.52 µg/mL (≈ 1.4 µM).

As for `CCCCC[C@H](O)/C=C/[C@H]1[C@H](O)CC(=O)[C@@H]1C/C(F)=C\CCCC(=O)O` [APG - 5, 6-fluoro-PGE2], the IC50 in test [1] worked out at 0.49 µg/mL (≈ 1.32 µM).

As for `CCCCC[C@H](O)/C=C/[C@H]1[C@H](O)CC(=O)[C@@H]1C/C(F)=C\CCCC(=O)OC` [APG - 7, 6-fluoro-PGE2 methyl ester], the IC50 in test [1] stood at 0.655 µg/mL (≈ 1.7 µM).

Molecule `CCCCC[C@H](O)/C=C/[C@H]1[C@H](O)CC(=O)[C@@H]1CC(F)CCCCC(=O)O` (stereo partly drawn) [APG - 21, 6-fluoro-PGE1] yielded an IC50 in test [1] of 0.1 µg/mL (≈ 0.268 µM).

Molecule `CCCC[C@H](C)C[C@H](O)/C=C/[C@H]1[C@H](O)CC(=O)[C@@H]1CC(F)CCCCC(=O)O` (stereo partly drawn) [APG - 24, (17S)-17,20-dimethyl-6-fluoro-PGE1] returned an IC50 in test [1] of 0.0059 µg/mL (≈ 0.0147 µM). Also, the minimal effective dose in test [2] (setting [5]) is 10 µg/kg; in test [2] (setting [6]), 0.1 µg/kg; in test [3], 300 µg/kg.

One may read the ED50 as the midpoint of the dose-response relation. Molecule `CCCC[C@H](C)C[C@H](O)/C=C/[C@H]1[C@H](O)CC(=O)[C@@H]1C/C(F)=C\CCCC(=O)O` [APG - 27, (17S)-17,20-dimethyl-6-fluoro-PGE2] showed an IC50 in test [1] of 0.0427 µg/mL (≈ 0.107 µM). Also, the ED50 in test [4] worked out at 3.4 µg/kg.

The molecule `CCCC[C@H](C)C[C@H](O)/C=C/[C@H]1[C@H](O)CC(=O)[C@@H]1CC(F)CC/C=C/C(=O)O` (stereo partly drawn) [APG - 29, Δ^2-(17S)-17,20-dimethyl-6-fluoro-PGE1] had an IC50 in test [1] of 0.00233 µg/mL (≈ 0.00585 µM). For the same molecule, the minimal effective dose stood at 0.1 µg/kg in test [2] (setting [6]) and 100 µg/kg in test [3]. The ED50 in test [4] amounted to 1.8 µg/kg.

In test [1], `CCCC[C@H](C)C[C@H](O)/C=C/[C@H]1[C@H](O)CC(=O)[C@H]1CC(F)CC/C=C/C(=O)O` (stereo partly drawn) [APG - 30, (17S)-8-ent-Δ^2-17,20-dimethyl-6-fuoro-PGE1] had an IC50 of 0.00105 µg/mL (≈ 0.00263 µM). For the same molecule, the minimal effective dose in test [3] came to 1000 µg/kg.

The record behind these values is patent publication US4906663A, “6-fluoroprostaglandins” (Asahi Glass Company, Ltd., priority 1987, dated 1990).
